Source: patent US20070015834A1 (priority 2005, published 2007)

Experiment: Small volume in vitro release test in 50 ml 0.1N HCl (model of fasted stomach)
Format: physicochemical
Settings: 37° C., 150 rpm
Experimental: The formulations were tested for their small volume in vitro release characteristics in 50 ml 0.1N HCl at 37° C. and 150 rpm using the following procedure: III. Instrumentation (or Equivalent) a. Automated Dissolution System comprising of: Hanson SR8 Plus Test Station Hanson Auto Plus Maximiser System Controller Hanson Auto Plus MultiFill Fraction Collector b. HPLC System comprising of: pump—Merck Hitachi L-7100 autoinjector—Merck Hitachi L-7200 column oven—Merck Hitachi L-7300 detector—Merck Hitachi L-7400 interface and integration software—Merck Hitachi D-7000
0.1N HCl Preparation Dilute 8.5 ml HCl 37% to 1 liter with purified water. Procedure Place one weighed capsule in each vessel containing 0.1N HCl and immediately operate the apparatus for 30 min. Unless otherwise specified, 3 ml samples are withdrawn from each vessel and immediately filtered through PTFE membranes at 15 and 30 min.
The small volume was chosen as a model of the conditions in a fasted stomach.

dissolution in 50 ml 0.1N HCl (in words): no dissolution at all
% dissolved 15 min (15 min): 0%
% dissolved 30 min (30 min): 0%
Compound: CC(C)OC(=O)C(C)(C)Oc1ccc(C(=O)c2ccc(Cl)cc2)cc1 [Micronized Fenofibrate]
